From BindingDB's records for PubMed 39149111 (Cairo University)

Target: Prostaglandin G/H synthase 2 (Ovis aries) (UniProt P79208)
Experiment: Inhibition of ovine COX-2 using arachidonic acid as substrate preincubated for 5 mins followed by substrate addition

Prostaglandin G/H synthase 2 (Ovis aries), sequence (P79208 whole entry, looked up): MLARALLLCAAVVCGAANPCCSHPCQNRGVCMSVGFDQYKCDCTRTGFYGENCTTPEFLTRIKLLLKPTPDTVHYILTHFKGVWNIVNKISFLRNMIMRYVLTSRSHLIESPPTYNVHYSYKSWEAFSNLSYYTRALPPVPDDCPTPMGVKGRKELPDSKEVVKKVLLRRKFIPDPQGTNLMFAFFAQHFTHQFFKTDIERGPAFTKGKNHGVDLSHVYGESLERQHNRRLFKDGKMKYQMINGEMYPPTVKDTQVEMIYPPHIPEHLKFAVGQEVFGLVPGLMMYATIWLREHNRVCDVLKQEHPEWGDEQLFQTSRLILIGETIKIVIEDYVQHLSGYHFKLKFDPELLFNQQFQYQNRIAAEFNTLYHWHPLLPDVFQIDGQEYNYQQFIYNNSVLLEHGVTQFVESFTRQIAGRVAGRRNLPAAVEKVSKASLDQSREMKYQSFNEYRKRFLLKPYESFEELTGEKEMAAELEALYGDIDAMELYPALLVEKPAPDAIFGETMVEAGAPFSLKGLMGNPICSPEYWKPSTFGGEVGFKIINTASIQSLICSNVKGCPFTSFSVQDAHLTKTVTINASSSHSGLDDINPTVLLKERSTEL

IC50: 560 nM
Structure (SMILES): O=C1NNC(N=CCc2ccc([N+](=O)[O-])cc2)C1=NNc1ccc(-c2nc3ccccc3o2)cc1 (stereo unspecified)
